Experimental data as given in patent publication US20160106695A1, “PETROSELINIC ACID OR A COMBINATION OF ACTIVE INGREDIENTS COMPRISING AT LEAST PETROSELINIC ACID FOR PROMOTING WEIGHT LOSS AND/OR WEIGHT MAINTENANCE” (NESTEC SA, priority 2013, published 2016).

Tested on: lipoxin A4 production by mononuclear blood cells
Assay: Synthesis/release of lipoxin A4 by stimulated (PMA/A23187 + DHA/EPA) mononuclear blood cells, LC-MS quantification
Format: cell-based
Conditions: 30 min pre-incubation, 2 hours of stimulation
Protocol: Mononuclear blood cells are cultured under 5% CO2 and at 37° C. in a serum-free medium for macrophages (SFM Macrophage; Invitrogen 12065074) for 24 hours.
After this step, the medium is replaced with the same fresh test medium also containing the active agents at the various doses for 30 minutes in the presence of the various products to be evaluated, as indicated in the table of results below. The inflammatory response was then triggered in the presence of phorbol myristate (0.05 μM) and calcium ionophore (1 μM) and of a lipid substrate mixture composed of docosahexaenoic acid (DHA—1 μg/mL) and eicosapentaenoic acid (EPA—1 μg/mL).
The supernatants were then collected after 2 hours of stimulation and frozen at −80° C. before preparation for analysis by mass spectrometry.
Experimental triplicates (three wells) were prepared per experimental condition. Into each culture plate was placed a control corresponding to cells stimulated with the PMA/A23187 mixture and/or with addition of the equimolar mixture of fatty acids.
The thawed supernatants were concentrated by solid-phase extraction (SPE) and taken up in methanol before spectrometric analysis. The analytical method used consists in separating the various analytes by high-pressure liquid chromatography as a function of their retention time and in quantifying them by mass spectrometry. […]

Row | Molecule | Level of lipoxin A4 production (% modulation relative to the control) (zinc gluconate 0.005 mg/ml) | Level of lipoxin A4 production (% modulation relative to the control) (taurine 3.1 mg/ml)
1 | Zinc gluconate | −5% | 
2 | NCCS(=O)(=O)O [Taurine] |  | +38%
